Results as given in patent US6872729B2, “Pyrimidinylbenzimidazole and triazinylbenzimidazole derivatives and agricultural/horticultural fungicides” (Kumiai Chemical Industry Co., Ltd., priority 1998, dated 2005).

Tested on: Erysiphe graminis
Assay: Test for preventive effect on wheat powdery mildew
Format: in vivo
Details: wheat (Norin-61-go) seedlings, 500 ppm active ingredient, preventive treatment; diseased area of first leaves 10 days after inoculation with Erysiphe graminis
Procedure: Test for Preventive Effect on Wheat Powdery Mildew 9 Wheat seeds (variety: Norin-61-go) were sown in each 9 cm×9 cm polyvinyl chloride pot, grown in a greenhouse for 8 days, then treated with 10 ml per pot of aqueous solutions of wettable powders prepared in accordance with Formulation Example 2, at a concentration of 500 ppm in terms of the active ingredients and dried in the air. Then, the seedlings were inoculated with Erysiphe graminis spores by sprinkle over the plant and placed in a greenhouse of from 20 to 25° C. 10 days after the inoculation, the total diseases area of the first leaves in each pot was observed and evaluated on the basis of the standards shown in Table 67. [table]

| Compound | Biological effectiveness |
| --- | --- |
| CCOc1cc(OCC)nc(-n2cnc3cc(F)ccc32)n1 [Compound I-479] | A (No diseased area) |
| COc1cc(OC)nc(-n2c(C(Cl)(Cl)Cl)nc3ccccc32)n1 [Compound I-25] | A (No diseased area) |
| Cc1nc2cc(Cl)c(Cl)cc2n1-c1nc(Cl)cc(Cl)n1 [Compound I-1064] | B (Diseased area of less than 25%) |
| CCCc1nc(OC)nc(-n2c(C(F)(F)F)nc3cc(C)ccc32)n1 [Compound I-1004] | A (No diseased area) |
| CCc1cc(CC)nc(-n2c(C)nc3cc(Cl)ccc32)n1 [Compound I-1096] | A (No diseased area) |
| COc1cc(OC)nc(-n2c(Cl)nc3ccccc32)n1 [Compound I-2] | A (No diseased area) |
| CCCOc1nc(C)nc(-n2c(C)nc3cc(C)ccc32)n1 [Compound I-831] | B (Diseased area of less than 25%) |
| COc1cc(OC)nc(-n2cnc3cc(Cl)ccc32)n1 [Compound I-83] | B (Diseased area of less than 25%) |
| COc1ccnc(-n2c(C)nc3cc(C)ccc32)n1 [Compound I-672] | B (Diseased area of less than 25%) |
| CCOc1cc(OCC)nc(-n2c(C)nc3ccc(F)cc32)n1 [Compound I-507] | A (No diseased area) |
| COc1cc(OC)nc(-n2c(C)nc3c(C)cccc32)n1 [Compound I-181] | B (Diseased area of less than 25%) |
| COc1nc(OC)nc(-n2c(C(Cl)(Cl)Cl)nc3cc(C)ccc32)n1 [Compound I-406] | A (No diseased area) |
| COc1ccc2c(c1)nc(Cl)n2-c1nc(OC)cc(OC)n1 [Compound I-260] | A (No diseased area) |
| COc1cc(OC)nc(-n2c(C)nc3cc(C(F)(F)F)ccc32)n1 [Compound I-188] | A (No diseased area) |
| CCOc1cc(C)nc(-n2c(C)nc3cc(C)ccc32)n1 [Compound I-775] | A (No diseased area) |
| COc1nc(OC)nc(-n2c(C(F)(F)F)nc3cc(Br)ccc32)n1 [Compound I-311] | A (No diseased area) |
| COc1cc(OC)nc(-n2cnc3ccc(Cl)cc32)n1 [Compound I-113] | B (Diseased area of less than 25%) |
| COc1cc(OC)nc(-n2c(C)nc3ccccc32)n1 [Compound I-6] | B (Diseased area of less than 25%) |
| COc1nc(C)nc(-n2c(C)nc3cc(C)ccc32)n1 [Compound I-752] | A (No diseased area) |
| CCCOc1cc(C)nc(-n2cnc3cc(C)ccc32)n1 [Compound I-809] | B (Diseased area of less than 25%) |
| CCc1nc2cc(Cl)ccc2n1-c1nc(OC)nc(OC)n1 [Compound I-346] | A (No diseased area) |
| CCOc1cc(OCC)nc(-n2c(C)nc3cc(OC)ccc32)n1 [Compound I-503] | A (No diseased area) |
| CCCOc1cc(C)nc(-n2c(Cl)nc3cc(OC)ccc32)n1 [Compound I-818] | B (Diseased area of less than 25%) |
| CNc1nc2cc(Cl)ccc2n1-c1nc(OC)nc(OC)n1 [Compound I-375] | A (No diseased area) |

| Compound | Biological effectiveness |
| --- | --- |
| CCCc1cc(OC)nc(-n2cnc3cc(C)ccc32)n1 [Compound I-962] | A (No diseased area) |
| COc1cc(OC)nc(-n2c(C3CC3)nc3ccccc32)n1 [Compound I-10] | B (Diseased area of less than 25%) |
| CCOc1nc(OCC)nc(-n2cnc3cc(Br)ccc32)n1 [Compound I-490] | A (No diseased area) |
| COCc1nc2cc(Cl)ccc2n1-c1nc(OC)nc(OC)n1 [Compound I-377] | A (No diseased area) |
| COc1nc(OC)nc(-n2c(C(F)(F)F)nc3cc(Cl)ccc32)n1 [Compound I-310] | A (No diseased area) |
| COc1nc(OC)nc(-n2c(N)nc3cc(C)ccc32)n1 [Compound I-369] | B (Diseased area of less than 25%) |
| COc1nc(OC)nc(-n2c(C)nc3cc(C(C)C)ccc32)n1 [Compound I-221] | B (Diseased area of less than 25%) |
| CCOc1cc(OCC)nc(-n2c(CC)nc3ccccc32)n1 [Compound I-462] | B (Diseased area of less than 25%) |
| COc1ccc2c(c1)nc(N)n2-c1nc(OC)cc(OC)n1 [Compound I-364] | A (No diseased area) |
| COc1nc(OC)nc(-n2cnc3cc(Cl)c(Cl)cc32)n1 [Compound I-175] | A (No diseased area) |
| CCc1nc2cc(C)ccc2n1-c1nc(OC)cc(OC)n1 [Compound I-334] | A (No diseased area) |
| CCOc1nc(OCC)nc(-n2c(C(Cl)(Cl)Cl)nc3cc(Cl)ccc32)n1 [Compound I-550] | A (No diseased area) |
| CCOc1cc(OCC)nc(-n2c(C)nc3cc(C(F)(F)F)ccc32)n1 [Compound I-502] | A (No diseased area) |
| CCOc1cc(OCC)nc(-n2c(C)nc3ccc(Cl)cc32)n1 [Compound I-508] | B (Diseased area of less than 25%) |
| COc1nc(OC)nc(-n2c(C(F)(F)F)nc3cc(C(C)(C)C)ccc32)n1 [Compound I-316] | B (Diseased area of less than 25%) |
| CCOc1cc(OCC)nc(-n2cnc3ccc(Cl)cc32)n1 [Compound I-486] | A (No diseased area) |
| COc1cc(OC)nc(-n2c(Cl)nc3cc(Cl)ccc32)n1 [Compound I-256] | A (No diseased area) |
| CCOc1cc(C)nc(-n2cnc3ccccc32)n1 [Compound I-768] | A (No diseased area) |
| COc1nc(OC)nc(-n2c(Cl)nc3cc(C)ccc32)n1 [Compound I-279] | A (No diseased area) |
| COc1cc(OC)nc(-n2cnc3cc(F)ccc32)n1 [Compound I-82] | A (No diseased area) |
| Cc1cc(C#N)nc(-n2c(C)nc3ccccc32)n1 [Compound I-1147] | B (Diseased area of less than 25%) |
| CCOc1nc(OCC)nc(-n2c(C(F)(F)F)nc3cc(C)ccc32)n1 [Compound I-543] | A (No diseased area) |
| COc1nc(OC)nc(-n2c(C)nc3c(C)cccc32)n1 [Compound I-212] | B (Diseased area of less than 25%) |
| COc1nc(OC)nc(-n2c(C(F)(F)F)nc3cc(F)ccc32)n1 [Compound I-309] | A (No diseased area) |

| Compound | Biological effectiveness |
| --- | --- |
| CCOc1ccnc(-n2c(C(F)(F)F)nc3cc(Cl)ccc32)n1 [Compound I-704] | B (Diseased area of less than 25%) |
| CCOc1cc(OCC)nc(-n2cnc3cc(C(F)(F)F)ccc32)n1 [Compound I-483] | A (No diseased area) |
| COc1cc(OC)nc(-n2c(Br)nc3ccccc32)n1 [Compound I-3] | A (No diseased area) |
| CCOc1cc(OCC)nc(-n2c(C(F)(F)F)nc3ccccc32)n1 [Compound I-465] | B (Diseased area of less than 25%) |
| COc1nc(OC)nc(-n2cnc3cc(Cl)ccc32)n1 [Compound I-130] | A (No diseased area) |
| COc1cc(C)nc(-n2c(C)nc3cc(Cl)ccc32)n1 [Compound I-731] | B (Diseased area of less than 25%) |
| COc1ccc2c(c1)nc(C)n2-c1nc(OC)nc(OC)n1 [Compound I-226] | A (No diseased area) |
| CCc1cc(C)nc(-n2c(C)nc3ccc(Cl)cc32)n1 [Compound I-1090] | B (Diseased area of less than 25%) |
| CCOc1ccnc(-n2cnc3ccccc32)n1 [Compound I-690] | A (No diseased area) |
| COc1cc(OC)nc(-n2c(N(C)C)nc3ccccc32)n1 [Compound I-30] | B (Diseased area of less than 25%) |
| COc1cc(OC)nc(-n2cnc3cc(OC(F)(F)F)ccc32)n1 [Compound I-91] | B (Diseased area of less than 25%) |
| COc1nc(OC)nc(-n2c(C3CC3)nc3cc(Cl)ccc32)n1 [Compound I-360] | B (Diseased area of less than 25%) |
| COc1cc(OC)nc(-n2cnc3cc(Br)ccc32)n1 [Compound I-84] | A (No diseased area) |
| CCOc1nc(OCC)nc(-n2c(C)nc3cc(C)ccc32)n1 [Compound I-516] | A (No diseased area) |
| Cc1cc(OC(C)C)nc(-n2cnc3ccccc32)n1 [Compound I-839] | A (No diseased area) |
| COc1cc(OC)nc(-n2c(C)nc3cc(C(=O)c4ccccc4)ccc32)n1 [Compound I-195] | B (Diseased area of less than 25%) |
| CCOc1nc(OCC)nc(-n2c(C(F)(F)F)nc3cc(OC)ccc32)n1 [Compound I-544] | A (No diseased area) |
| CCCOc1cc(C)nc(-n2cnc3cc(OC)ccc32)n1 [Compound I-805] | B (Diseased area of less than 25%) |
| CCCc1ccc2c(c1)ncn2-c1nc(OC)nc(OC)n1 [Compound I-135] | A (No diseased area) |
| CCOc1cc(OCC)nc(-n2cnc3cc(Cl)ccc32)n1 [Compound I-480] | A (No diseased area) |
| COc1cc(OC)nc(-n2c(-c3ccc(Cl)cc3)nc3ccccc32)n1 [Compound I-35] | B (Diseased area of less than 25%) |
| COc1cc(OC)nc(-n2cnc3ccc(C)cc32)n1 [Compound I-114] | B (Diseased area of less than 25%) |
| CCCc1ccc2c(c1)nc(C(F)(F)F)n2-c1nc(OC)nc(OC)n1 [Compound I-314] | A (No diseased area) |
| CCOc1ccnc(-n2cnc3cc(Cl)ccc32)n1 [Compound I-692] | B (Diseased area of less than 25%) |
